Columns and labels:
[1] = molecular target: T1, UGT73C5 (Arabidopsis thaliana, UniProt Q9ZQ94); assay: preparative in vitro glucosylation, product purified by HPLC; assay type: biochemical; conditions: co-substrate UDP-glucose; glucosylation at C-23
T1 construct: recombinant GST-tagged UGT73C5
T1 sequence (Q9ZQ94 1-495): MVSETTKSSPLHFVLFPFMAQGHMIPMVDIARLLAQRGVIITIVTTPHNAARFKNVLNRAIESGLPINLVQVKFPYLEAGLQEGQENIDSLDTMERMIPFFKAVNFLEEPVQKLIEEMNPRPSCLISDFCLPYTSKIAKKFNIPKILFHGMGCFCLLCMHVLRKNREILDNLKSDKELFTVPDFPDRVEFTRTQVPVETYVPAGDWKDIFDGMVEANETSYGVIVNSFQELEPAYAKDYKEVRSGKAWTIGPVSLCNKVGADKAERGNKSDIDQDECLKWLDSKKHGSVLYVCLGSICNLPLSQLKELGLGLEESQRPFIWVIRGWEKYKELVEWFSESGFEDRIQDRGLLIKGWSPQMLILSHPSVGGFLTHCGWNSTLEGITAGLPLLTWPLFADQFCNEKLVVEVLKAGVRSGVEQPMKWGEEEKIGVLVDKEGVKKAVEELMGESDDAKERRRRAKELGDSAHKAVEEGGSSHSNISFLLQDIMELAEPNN

[2] = molecular target: T1, UGT73C5; assay: in vitro glucosylation, product confirmed by HR-MS and HR-MS/MS; assay type: biochemical; conditions: reference compound synthesis; glucosylation at C-23
[3] = substrate: CC(C)[C@@H](C)[C@@H](O[C@@H]1O[C@H](CO)[C@@H](O)[C@H](O)[C@H]1O)[C@H](O)[C@@H](C)[C@H]1CC[C@H]2[C@@H]3COC(=O)[C@H]4C[C@H](O)[C@H](O)C[C@]4(C)[C@H]3CC[C@]12C; assay: purified protein; assay type: biochemical, Arabidopsis thaliana; conditions: co-substrate malonyl-CoA 2.5 mM, 50 mM sodium phosphate pH 8.0, 30 °C

With `CC(C)[C@@H](C)[C@@H](O)[C@H](O)[C@@H](C)[C@H]1CC[C@H]2[C@@H]3COC(=O)[C@H]4C[C@H](O)[C@H](O)C[C@]4(C)[C@H]3CC[C@]12C` [24-epiBL] the “preparative in vitro glucosylation, product purified by HPLC” value [1] was 24-epiBL (epiBL) as an acceptor were carried out, and the resulting epiBL-23-O-Glc was purified.

For `CC(C)[C@H](C)[C@@H](O)[C@H](O)[C@@H](C)[C@H]1CC[C@H]2[C@@H]3COC(=O)[C@H]4C[C@H](O)[C@H](O)C[C@]4(C)[C@H]3CC[C@]12C` [brassinolide], the “in vitro glucosylation, product confirmed by HR-MS and HR-MS/MS” value [2] was “BL-23-O-MalGlc as analytical reference, which were generated in vitro with recombinant UGT73C5 and PMAT1”.

B1: At5MAT (Arabidopsis thaliana) (protein)
chain: MVNFNSAVNILEVVQVSPPSSNSLTLPLTYFDLGWLKLHPVDRVLFYHVPELTRSSLISKLKSSLSATLLHYLPLAGRLVWDSIKTKPSIVYSPDDKDAVYLTVAESNGDLSHLSGDEPRPATEFHSLVPELPVSDESARVLAVQVTFFPNQGFSLGVTAHHAVLDGKTTAMFLKAWAHNCKQEQEALPHDLVPSLDRIIVQDPTGLETKLLNRWISASNNKPSLKLFPSKIIGSDILRVTYRLTREDIKKLRERVETESHAKQLRLSTFVITYAYVITCMVKMRGGDPTRFVCVGFASDFRSRLNPPLPPTFFGNCIVGSGDFDVKAEPILEEGEGKGFITAVETLTGWVNGLCPENIEKNMLLPFEAFKRMEPGRQMISVAGSTRLGIYGSDFGWGKPVKVEIVTIDKDASVSLSESGDGSGGVEVGVCLKKDDVERFGSLFSIGLE
notes: full ORF, GST fusion (pGEX-4T-2-At5MAT), E. coli BL21, glutathione Sepharose purified; GST tag kept
Molecule B1 has a Km ([3]; 240 min) of 71 µM.

B2: PMAT1 (Arabidopsis thaliana) (protein)
chain: MVNEEMESSLKVIDVARVTPSNSDSSESLTLPLTFFDLLWYKLHAVERVIFYKLTDASRPFFDSVIVPNLKTSLSSSLSHYLPLAGKLVWEPLDPKPKIVYTPNDAVSFTVAESNADFSRLTGKEPFPTTELYPLVPELHVSDDSASAVSFQVTLFPNQGFCISVNAHHAVLDGKTTTNFLKSWARTCKNQDSFLPQDLIPVYDRTVIKDPMDLDTKILNAWHRVAKVFTGGKEPENPKSLKLLWSPEIGPDVFRYTLNLTREDIQKLRERLKKESSSSSVSSSPKELRLSTFVIVYSYALTCLIKARGGDPSRPVGYGFAVDCRSLMVPPVPSSYFGNCVSACFKMSLTAETFMSEEGFLAAARMVSDSVEALDENVALKIPEILEGFTTLSPGTQVLSVAGSTRFGVYGLDFGWGRPEKVVVVSIDQGEAISFAESRDGSGGVELGFSLKKHEMDVLVDLLHKGLEN
notes: full ORF, GST fusion (pGEX-4T-2-PMAT1), E. coli BL21, glutathione Sepharose purified; GST tag kept
For B2, the Km ([3]; 20 min) was 235 µM.

From article PMC8010461, “The acyltransferase PMAT1 malonylates brassinolide glucoside” (The Journal of Biological Chemistry, 2021)
